In patent EP4659758A1, “ANTI-AGING COMPOSITION” (Mitsubishi Corporation Life Sciences Limited, priority 2023, dated 2024):

What was measured:
Format in all cases: cell-based
Normal human fibroblasts [1] = assay: Suppression of decrease in proliferation capability after hydrogen peroxide aging induction (MTT assay); settings: 50 µM or 100 µM, 0.5 mM hydrogen peroxide aging induction; relative to untreated non-induced = 100; compared with only aging induction and with 100 µM reduced glutathione, p < 0.005
Procedure: Normal human fibroblasts were seeded in 96 well plates (3.0 × 10^3 cells/well, N = 3) and precultured for 24 hours (5% CO2, 37°C). As a medium, MEM-α, nucleosides medium (Gibco) containing fetal bovine serum (10% of serum-free medium was externally added) was used. Thereafter, the wells were washed once with PBS (-), then replaced with MEM-α, nucleoside medium containing fetal bovine serum (5% of serum-free medium was externally added) dissolved so that the final concentration of Sample 1 or Sample 2 was 50 µM or 100 µM, and further incubated for 30 minutes. Thereafter, fibroblasts were treated with a medium adjusted so that the final concentration of hydrogen peroxide was 0.5 mM to induce aging. Thereafter, an MTT assay was performed according to a conventional method, and the survival rate of fibroblasts was calculated as a relative value when the survival rate of cells in the test section in which neither treatment nor aging induction was performed was taken as 100.
For comparison, a test section in which only aging induction was performed and a test section in which reduced glutathione was 100 µM was set instead of Sample 1. […]

[2] = system: Normal human epidermal keratinocytes; assay: as above; settings: 50 µM or 100 µM, 0.5 mM hydrogen peroxide aging induction; relative to untreated non-induced = 100; compared with only aging induction
Procedure: Normal human epidermal keratinocytes were seeded in 96 well plates (1.0 × 10^4 cells/well, N = 3) and precultured for 24 hours (5%CO2, 37°C). As a medium, a commercially available keratinocyte growth medium (PromoCell) was used. Thereafter, the wells were washed once with PBS (-), then replaced with a keratinocyte growth medium dissolved so that the final concentration of Sample 1 was 50 µM or 100 µM, and further incubated for 30 minutes. Thereafter, normal human epidermal keratinocytes were treated with a medium adjusted to have a final concentration of hydrogen peroxide of 0.5 mM to induce aging. Thereafter, an MTT assay was performed according to a conventional method, and the survival rate of normal human epidermal keratinocytes was calculated as a relative value when the survival rate of cells in a test section in which neither the treatment with oxidized glutathione trisulfide nor the aging induction was performed was taken as 100.
For comparison, a test section in which only aging induction was performed without treatment with oxidized glutathione trisulfide was set.
Regarding the survival rate, a significant difference test (t-test, two-tailed) between the two groups of the test section of Sample 1 and the test section in which only aging induction was performed was performed respectively.

Normal human fibroblasts [3] = assay: Suppression of decrease in hyaluronic acid production capability due to aging induction (ELISA); settings: 50 µM or 100 µM, 0.5 mM hydrogen peroxide, 24 hours; for hyaluronic acid production amount: relative value, compared with only aging induction
Procedure: Normal human fibroblasts were seeded in 24 well plates (8.0 × 10^4 cells/well, N = 3) and precultured for 24 hours (5% CO2, 37°C). As a medium, MEM-α, nucleosides medium (Gibco) containing fetal bovine serum (10% of serum-free medium was externally added) was used. Thereafter, the wells were washed once with PBS (-), then replaced with MEM-α, nucleoside medium containing fetal bovine serum (5% of serum-free medium was externally added) dissolved so that the final concentration of Sample 1 or Sample 2 was 50 µM or 100 µM, and further incubated for 30 minutes. Thereafter, fibroblasts were treated with a medium adjusted so that the final concentration of hydrogen peroxide was 0.5 mM to induce aging. Thereafter, the culture medium was changed to MEM-α, nucleoside medium containing fetal bovine serum (5% of serum-free culture medium was externally added) and incubated for 24 hours, and then the amount of hyaluronic acid was quantified by ELISA using a hyaluronic acid quantification kit (Cosmo Bio Inc.).
The hyaluronic acid production amount in each test section was shown as a relative value when the hyaluronic acid production amount in each sample and the test section in which aging induction was not performed was taken as 100. Regarding the hyaluronic acid production amount, a significant difference test (t-test, two-tailed) between the two groups of the test section for Sample 1 and the test section for which only the aging induction was performed respectively, and a significant difference test between the test section for Sample 2 and the test section for which only the aging induction was performed were each performed, and "*(p < 0.05)" was marked for those in which a significant difference was recognized.

[4] = system: Normal human epidermal keratinocytes; assay: as above; settings: 50 µM, 0.5 mM hydrogen peroxide, 24 hours
Procedure: Normal human epidermal keratinocytes were seeded in 24 well plates (1.0 × 10^5 cells/well, N = 3) and precultured for 24 hours (5%CO2, 37°C). As a medium, a commercially available keratinocyte growth medium (PromoCell) was used. Thereafter, the wells were washed once with PBS (-), then replaced with a keratinocyte growth medium dissolved so that the final concentration of Sample 1 was 50 µM, and further incubated for 30 minutes. Thereafter, normal human epidermal keratinocytes were treated with a medium adjusted to have a final concentration of hydrogen peroxide of 0.5 mM to induce aging. Thereafter, the medium was replaced with a new keratinocyte growth medium and incubated for 24 hours, and then the amount of hyaluronic acid was quantified by an ELISA method using a hyaluronic acid quantification kit (Cosmo Bio). For comparison, a test section not treated with oxidized glutathione trisulfide was provided.
The hyaluronic acid production amount in each of the test sections was shown as a relative value when the hyaluronic acid production amount in the test section in which neither oxidized glutathione trisulfide treatment nor aging induction was performed was taken as 100. […]

B16 mouse melanoma cells = assay: Melanin production suppression test in cultured cells (absorbance at 405 nm); settings: α-MSH 200 nM induction; for melanin production amount: 0.02 mM or 0.05 mM, relative to reference sample (induction only) = 100, p < 0.01
Procedure: B16 mouse melanoma cells were seeded in a 6 well plate (2.0 × 10^4 cells/well), and cultured for 24 hours in D-MEM medium to which 5% fetal bovine serum was added with respect to the medium (5%CO2, 37°C). […] The obtained pellets were washed twice with PBS (-), 150 µL of a 1 M sodium hydroxide solution was then added, and the mixture was treated at 100°C for 10 minutes to dissolve the pellets, thereby preparing a reference sample. […] One hundred µL of a sample of each test section was added to a 96 well plate, and the absorbance at 405 nm was measured with a microplate reader (n = 3). […] The significant difference test was performed on the measured value of the reference sample by the Dunnett method (*p < 0.05, **p < 0.01.).

tyrosinase = target: T1, tyrosinase (Mus musculus, UniProt P11344); assay: Tyrosinase activity suppression test (L-DOPA, absorbance at 490 nm, cell extract); settings: 0.05 mM or 0.1 mM at melanin induction
T1 construct: a protein extract containing tyrosinase derived from B16 mouse melanoma cells; endogenous in cells; host or cells: B16 mouse melanoma cells, alpha-MSH induced; RIPA buffer lysate supernatant
T1 sequence (P11344 19-533): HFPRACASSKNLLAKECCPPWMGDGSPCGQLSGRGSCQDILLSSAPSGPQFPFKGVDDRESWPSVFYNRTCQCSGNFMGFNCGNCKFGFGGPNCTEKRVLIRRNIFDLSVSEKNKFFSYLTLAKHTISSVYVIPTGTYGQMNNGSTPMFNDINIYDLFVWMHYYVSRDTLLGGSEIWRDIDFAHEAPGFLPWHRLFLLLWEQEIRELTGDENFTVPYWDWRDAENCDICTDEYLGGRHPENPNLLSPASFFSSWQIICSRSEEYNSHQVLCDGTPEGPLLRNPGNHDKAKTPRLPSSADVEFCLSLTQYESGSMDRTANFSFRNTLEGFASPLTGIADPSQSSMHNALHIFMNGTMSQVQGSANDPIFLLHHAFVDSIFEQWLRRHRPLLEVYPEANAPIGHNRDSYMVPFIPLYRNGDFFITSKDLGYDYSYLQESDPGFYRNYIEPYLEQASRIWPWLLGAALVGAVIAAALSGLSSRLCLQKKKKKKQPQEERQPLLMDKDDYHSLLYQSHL
Description: In addition, the tyrosinase activity in the present invention can be confirmed by adding L-DOPA having a known concentration to a protein extract containing tyrosinase derived from B16 mouse melanoma cells in which melanin is induced by a melanin inducer such as α-MSH (melanocyte stimulating hormone) to react, measuring the absorbance at 490 nm, and correcting the absorbance with the protein concentration in the protein extract. The tyrosinase activity inhibitory effect can be known by comparing the value of the absorbance at 490 nm corrected by the protein concentration measured by adding the test substance at the time of melanin induction and the same operation with the value of the test section to which the test substance is not added.
B16 mouse melanoma cells were seeded in a 6 well plate (2.0 × 10^4 cells/well), and cultured for 24 hours in D-MEM medium to which 5% fetal bovine serum was added with respect to the medium (5%CO2, 37°C). […] The protein concentration of the obtained sample was measured by the BCA method.
The same operation was performed except that melanin induction was not performed, and a reference sample was obtained. […] Fifty µL of a sample of each test section was placed in a 96 well plate (n=3), 50 µL of 0.8 mg/mL L-DOPA was added, the mixture was reacted at 37°C for 1 hour, and then the absorbance at 490 nm was measured with a microplate reader. […]

Compound | survival rate of fibroblasts (cell proliferation rate) (Normal human fibroblasts [1]) | survival rate of normal human epidermal keratinocytes (cell proliferation rate) [2] | hyaluronic acid production capability (Normal human fibroblasts [3]; compared with test sections without aging induction, no significant difference) | hyaluronic acid production amount (Normal human fibroblasts [3]) | hyaluronic acid production capability ([4]; compared with control group without aging induction, no significant difference) | hyaluronic acid production amount ([4]; relative value, compared with only aging induction) | melanin production amount (B16 mouse melanoma cells) | tyrosinase activity (tyrosinase; compared with reference sample (no melanin induction) = 100) | tyrosinase activity (tyrosinase; compared with test section with only melanin induction) | melanin production suppressing effect (B16 mouse melanoma cells; 3 mM, compared with 0.02 mM Sample 1)
N[C@@H](CCC(=O)N[C@@H](CSSSC[C@H](NC(=O)CC[C@H](N)C(=O)O)C(=O)NCC(=O)O)C(=O)NCC(=O)O)C(=O)O [Sample 1, oxidized glutathione trisulfide] | significant cell proliferation rate | significant cell proliferation rate | same hyaluronic acid production capability as those of the test sections that did not induce aging | significantly higher than that in the test section of only aging induction | same hyaluronic acid production capability as that of the control group in which aging is not induced | significantly higher than that in the test section of only aging induction | significantly low | same degree of tyrosinase activity as the reference sample | significantly lower than the test section in which only melanin induction was performed | –
CC(=O)N[C@@H](CSSSC[C@H](NC(C)=O)C(=O)O)C(=O)O [Sample 2, oxidized NAC trisulfide] | significant cell proliferation rate | – | – | significantly higher than that in the test section of only aging induction | – | – | significantly low | – | – | –
N[C@@H](CCC(=O)N[C@@H](CS)C(=O)NCC(=O)O)C(=O)O [reduced glutathione, reference compound] | – | – | – | – | – | – | – | – | – | same melanin production suppressing effect as the 0.02 mM test section of Sample 1
